From patent US20240316064A1, “USE OF ESTRETOL AS A TREATMENT FOR ENDOMETRIOSIS” (UNIVERSIDAD BERNANDO O'HIGGINS, priority 2021, published 2024)

What was measured:
11Z epithelial cells [1] = assay: PARP cleavage rate (apoptosis), Western blot, 11Z cells; format: cell-based; details: 24 h incubation, most estetrol and estradiol concentrations
Protocol: (§1) FIG. 1. […] (A) Western blot analysis against PARP and β-actin after 24 h incubation (B) MTS assay after 24 h incubation (C) Scratch assay. […] The experiments were performed on 2 cell lines, Hs832, endometrial stromal cells and 11Z cells, endometrial epithelium cells.

11Z epithelial cells [2] = assay: MTS cell viability assay, 11Z cells; format: cell-based; details: 24 h, all estetrol concentrations tested
Protocol: (§2) FIG. 1. Evaluation of apoptosis, cell viability and migration after treatments with E2 and E4 in endometriotic cells. (A) Western blot analysis against PARP and β-actin after 24 h incubation (B) MTS assay after 24 h incubation (C) Scratch assay.
(§3) To assess cell viability, the MTS assay was performed after 24 h.

Hs832 stromal cell line [3] = assay: PARP cleavage rate (apoptosis), Western blot, Hs832 cells; format: cell-based; details: 24 h incubation, almost all estetrol concentrations (except 108M)
Protocol: as §1

11Z cells = assay: Wound (scratch) migration assay, 11Z cells; format: cell-based; details: estetrol 10^−6, any time point studied
Protocol: as §2

ER β = assay: ERβ protein levels by Western blot in endometriotic cells; format: cell-based
PRB = PRB protein levels by Western blot in endometriotic cells; format: cell-based
[4] = test system: genes associated with the progesterone signaling pathway; assay: PCR array for progesterone-regulated genes in Hs832 cells; format: cell-based; details: 24 h E4 (10^−6M) then 6h pulse with P4 (10^−7M), versus P4 without pre-treatment; for expression of PTGER2, NF1, MUC1, TWIST1 and SNAI1: change to a lesser extent
Protocol: FIG. 4. PCR Array Analysis for Progesterone-Regulated Genes in Endometrial Cells, Hs832 Cells. The expression of genes regulated by progesterone (P4) is compared, when incubating with P4 without previous treatment or with a 24 hour treatment with Estetrol.
Procedure: Hs832 endometriosis cells were incubated for 24 h with E4 (10^−6M) or vehicle (ethanol) as a control, then both cells received a 6h pulse with P4 (10^−7M) to then extract their messenger RNA in order to evaluate the levels. expression of 24 genes associated with the progesterone signaling pathway.

Hs832 cells = assay: Wound (scratch) migration assay, Hs832 cells; format: cell-based; details: Hs832, estetrol 10^−6, any time point studied
Protocol: as §2

PRA = PRA protein levels by Western blot in endometriotic cells
Hs832 stromal cell line [5] = assay: MTS cell viability assay, Hs832 cells; format: cell-based; details: 24 h, all estetrol concentrations tested
Protocol: as §2, §3

ERα = ERα protein levels by Western blot in endometriotic cells; format: cell-based; details: most of the concentrations used
ERα/ERβ ratio = ERα/ERβ ratio of protein levels in endometriotic cells; format: cell-based; details: versus control and estradiol conditions

C[C@]12CC[C@@H]3c4ccc(O)cc4CC[C@H]3[C@@H]1[C@@H](O)[C@@H](O)[C@@H]2O [estetrol]
PARP cleavage rate (apoptosis) (11Z epithelial cells [1]): apoptosis was reduced | changes in cell viability compared to controls (MTS) (11Z epithelial cells [2]): None of the estetrol concentrations tested showed changes | PARP cleavage rate (apoptosis) (Hs832 stromal cell line [3]): significant decrease | migration (wound assay) (11Z cells): showed no difference from the control | ER protein levels (ER β levels over β-actin, FIG. 2B) (ER β; 11Z, estetrol, most concentrations used): reduced levels | ER protein levels (ER β levels over β-actin, FIG. 2B) (ER β; Hs832, estetrol, all conditions): reduced levels | PRB protein levels over β-actin (PRB; 11Z cells, estetrol, all concentrations used): more consistent increase | PRB protein levels over β-actin (PRB; HsS32, estetrol 10^−6/10^−5M): more consistent increase | decrease of expression of FGF12, GCFC2, PWP1, ITGA6, ZEB1, POSTN and FKBP25 [4]: to a lesser extent | expression of NFIX, GNRFI1, ESR1, MEF2D and I HH [4]: stimulating the expression | expression of PRL, SNAI2, RAD54L, HES1, ABCG2, TCF4 [4]: strongly decreasing | expression of PTGER2, NF1, MUC1, TWIST1 and SNAI1 [4]: increase | expression of PTGER2, NF1, MUC1, TWIST1 and SNAI1 ([4]; listed as E4): increases | expression of PRL, SNAI2, RAD54L, HES1, ABCG2, TCF4 ([4]; listed as E4): strongly decreases | migration (wound assay) (Hs832 cells): showed no difference from the control | PRA protein levels over β-actin (PRA; 11Z, estetrol 10^−9/10^−8M): increase | PRA protein levels over β-actin (PRA; Hs832, estetrol 10^−5M): increase | PRA protein levels over β-actin (PRA; HsS32, estetrol 10^−9/10^−7M): decreased | changes in cell viability compared to controls (MTS) (Hs832 stromal cell line [5]): None of the estetrol concentrations tested showed changes | ERα levels over β-actin (ERα; 11Z, estetrol): robust increase | ERα levels over β-actin (ERα; Hs832, estetrol): robust increase | ERα/ERβ ratio (ERα/ERβ ratio; 11Z cells, estetrol 10^−7/10^−6/10^−5M): significantly increases | ERα/ERβ ratio (ERα/ERβ ratio; Hs832 cells, estetrol 10^−9/10^−7M): significantly increases
